Measurements: patent US20050075375A1 (priority 2003, published 2005)
Where two headings read alike, the source gives them in different places.

Test system: monocistronic NK5.1 HCV replicon in Huh7 cells
Test: HCV replicon assay, monocistronic replicon cell line
Type: cell-based, hepatitis C virus
Conditions: Hepatitis C virus, read-out: Mono EC50 Median
In short: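 Huh7 cells carrying the monocistronic NK5.1 replicon, seeded 24 h before dosing, were exposed to six-point half-log compound series (0.6% DMSO) for 3 days at 37 °C. Replicon RNA was quantified by TaqMan RT-PCR, normalised to GAPDH and compared with DMSO controls to derive EC50.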

[1] = Huh-7, 72 h, table T3 (compounds 471-640), monocistronic replicon in Huh7 cells, 3 days incubation, HCV RNA/GAPDH RNA by TaqMan RT-PCR
[2] = Huh-7, 72 h, Table 1, monocistronic replicon in Huh7 cells, 3 days incubation, HCV RNA/GAPDH RNA by TaqMan RT-PCR
[3] = Huh-7, monocistronic NK5.1 HCV replicon in Huh7 cells, median value

Row | SMILES | EC50 [1] [µM] | EC50 [2] [µM] | EC50 [3] [µM]
1 | O=[N+]([O-])c1ccc(O)c(-c2nc(-c3ncccn3)n[nH]2)c1 [Compound 560, 4-Nitro-2-(5-pyrimidin-2-yl-2H-[1,2,4]triazol-3-yl)-phenol] | > 32 | – | –
2 | O=[N+]([O-])c1ccc(Cl)c(-c2nc(-c3ccccn3)no2)c1 [Compound 173, 2-[5-(2-Chloro-5-nitro-phenyl)-[1,2,4]oxadiazol-3-yl]-pyridine] | – | 3.8 | –
3 | Nc1ccc(-c2noc(-c3cc(Br)ccc3O)n2)nc1 [Compound 254, 2-[3-(5-Amino-pyridin-2-yl)-[1,2,4]oxadiazol-5-yl]-4-bromo-phenol] | – | – | 32
4 | Cc1cccnc1-c1noc(-c2cccc(NC(=O)OC(C)(C)C)c2O)n1 [Compound 298] | – | – | 0.62
5 | O=[N+]([O-])c1ccc(O)c(-c2nc(-c3ccccn3)no2)c1 [Compound 146, 4-Nitro-2-(3-pyridin-2-yl-[1,2,4]oxadiazol-5-yl)-phenol] | – | > 32 | –
6 | Cc1cccc(-c2n[nH]c(-c3cccc([N+](=O)[O-])c3)n2)n1 [Compound 404, 6-Methyl-2-[5-(3-nitro-phenyl)-1H-[1,2,4]triazol-3-yl]-pyridine] | – | – | > 19
7 | Cc1cccc(-c2n[nH]c(-c3ccccc3Cl)n2)n1 [Compound 466, 2-[5-(2-Chloro-phenyl)-1H-[1,2,4]triazol-3-yl]-6-methyl-pyridine] | – | – | > 32
8 | O=[N+]([O-])c1cccnc1-c1noc(-c2cc(Cl)ccc2O)n1 [Compound 154, 4-Chloro-2-[3-(3-nitro-pyridin-2-yl)-[1,2,4]oxadiazol-5-yl]-phenol] | – | > 19 | –
9 | Brc1ccc(OCc2ccccc2)c(-c2ccn(-c3ccccn3)n2)c1 [Compound 98, 2-[3-(2-Benzyloxy-5-bromo-phenyl)-pyrazol-1-yl]-pyridine] | – | 15 | –
10 | COc1ccc(O)c(-c2nc(-c3ccccn3)n[nH]2)c1 [Compound 360, 4-Methoxy-2-(5-pyridin-2-yl-2H-[1,2,4]triazol-3-yl)-phenol] | – | – | 5.4
11 | COc1cccc(-c2nc(-c3ncccn3)n[nH]2)c1O [Compound 570, 6-Methoxy-2-(5-pyrimidin-2-yl-2H-[1,2,4]triazol-3-yl)-phenol] | > 32 | – | –
12 | Oc1ccc(O)c(-c2nc(-c3ccc(C(F)(F)F)cn3)n[nH]2)c1 [Compound 522, 4-Hydroxy-2-[5-(5-trifluoromethyl-pyridin-2-yl)-2H-[1,2,4]triazol-3-yl]-phenol] | > 19 | – | –
13 | COc1ccc(O)c(-c2nc(-c3ncccc3C(F)(F)F)no2)c1 [Compound 208, 4-Methoxy-2-[3-(3-trifluoromethyl-pyridin-2-yl)-[1,2,4]oxadiazol-5-yl]-phenol] | – | 3.5 | –
14 | Oc1ccccc1-c1ccn(-c2ncccc2C(F)(F)F)n1 [Compound 42, 2-[1-(3-Trifluoromethyl-pyridin-2-yl)-1H-pyrazol-3-yl]-phenol] | – | 6 | –
15 | Oc1ccc(Br)cc1-c1nc(-c2ncccc2C(F)(F)F)no1 [Compound 292, 4-Bromo-2-[3-(3-trifluoromethyl-pyridin-2-yl)-[1,2,4]oxadiazol-5-yl]-phenol] | – | – | 1.5
16 | Cc1cccnc1-c1nc(-c2cc([N+](=O)[O-])ccc2O)n(C)n1 [Compound 607, 4-Nitro-2-[2-methyl-5-(3-methyl-pyridin-2-yl)-2H-[1,2,4]triazol-3-yl]-phenol] | 2.8 | – | –
17 | COc1cccc(-c2nc(-c3ccccn3)n[nH]2)c1 [Compound 387, 2-[5-(3-Methoxy-phenyl)-1H-[1,2,4]triazol-3-yl]-pyridine] | – | – | > 19
18 | Cn1nc(-c2ccccn2)nc1-c1c(O)ccc2ccccc12 [Compound 605, 1-(2-methyl-5-Pyridin-2-yl-2H-[1,2,4]triazol-3-yl)-naphthalen-2-ol] | 9 | – | –
19 | COc1ccc(-c2nc(-c3ncccc3C)no2)c(O)c1 [Compound 175, 5-Methoxy-2-[3-(3-methyl-pyridin-2-yl)-[1,2,4]oxadiazol-5-yl]-phenol] | – | 0.5 | –
20 | Oc1ccc2ccccc2c1-c1nc(-c2nccc3ccccc23)n[nH]1 [Compound 385, 1-(5-isoquinolin-1-yl-2H-[1,2,4]triazol-3-yl)-naphthalen-2-ol] | – | – | > 19
21 | CCOc1cccc(-c2nc(-c3ncccn3)n[nH]2)c1O [Compound 564, 6-Ethoxy-2-(5-pyrimidin-2-yl-2H-[1,2,4]triazol-3-yl)-phenol] | > 32 | – | –
22 | FC(F)(F)c1cccnc1-c1n[nH]c(-c2cccc(Br)c2)n1 [Compound 550, 2-[5-(3-Bromo-phenyl)-1H-[1,2,4]triazol-3-yl]-3-trifluoromethyl-pyridine] | > 19 | – | –
23 | c1ccc(-c2noc(-c3cccc4ccccc34)n2)nc1 [Compound 140, 2-(5-Naphthalen-1-yl-[1,2,4]oxadiazol-3-yl)-pyridine] | – | 7.1 | –
24 | CC(C)(C)c1ccc(O)c(-c2nc(-c3ncccc3C(F)(F)F)n[nH]2)c1 [Compound 531, 4-tert-Butyl-2-[5-(3-trifluoromethyl-pyridin-2-yl)-2H-[1,2,4]triazol-3-yl]-phenol] | > 19 | – | –

Row | SMILES | EC50 [1] [µM] | EC50 [2] [µM] | EC50 [3] [µM]
25 | Cc1cccnc1-c1noc(-c2ccc(NC(=O)OC(C)(C)C)cc2O)n1 [Compound 276, {3-Hydroxy-4-[3-(3-methyl-pyridin-2-yl)-[1,2,4]oxadiazol-5-yl]-phenyl}-carbamic acid tert-butyl ester] | – | – | 0.7
26 | Cc1cccc(-c2n[nH]c(-c3cc(Cl)ccc3O)n2)n1 [Compound 395, 4-Chloro-2-(5-(6-methyl-pyridin-2-yl)-2H-[1,2,4]triazol-3-yl)-phenol] | – | – | > 19
27 | Oc1ccc(F)cc1-c1nc(-c2ncccn2)n[nH]1 [Compound 561, 4-Fluoro-2-(5-pyrimidin-2-yl-2H-[1,2,4]triazol-3-yl)-phenol] | > 32 | – | –
28 | Clc1ccccc1-c1nc(-c2nccc3ccccc23)n[nH]1 [Compound 471] | 6.1 | – | –
29 | Cc1ccc(O)c(-c2nc(-c3ccc(C(F)(F)F)cn3)n[nH]2)c1 [Compound 516, 4-Methyl-2-[5-(5-trifluoromethyl-pyridin-2-yl)-2H-[1,2,4]triazol-3-yl]-phenol] | > 19 | – | –
30 | Oc1ccc(O)c(-c2nc(-c3ncccc3-c3ccccc3)no2)c1 [Compound 236, 2-[3-(3-Phenyl-pyridin-2-yl)-[1,2,4]oxadiazol-5-yl]-benzene-1,4-diol] | – | 2.2 | 2.2
31 | Oc1c(Cl)cc(Cl)cc1-c1nc(-c2ccccn2)no1 [Compound 281] | – | – | 2.1
32 | CC(C)(C)c1ccc(O)c(-c2nc(-c3ncccn3)n[nH]2)c1 [Compound 559, 4-tert-Butyl-2-(5-pyrimidin-2-yl-2H-[1,2,4]triazol-3-yl)-phenol] | > 32 | – | –
33 | Cc1cc(O)c(-c2cc(C)n(-c3ccc(C(C)C)cc3)n2)cc1C [Compound 30, 2-[1-(4-Isopropyl-phenyl)-5-methyl-1H-pyrazol-3-yl]-4,5-dimethyl-phenol] | – | 12 | –
34 | COc1ccc(-c2nc(-c3ccccn3)no2)c(O)c1 [Compound 152, 5-Methoxy-2-(3-pyridin-2-yl-[1,2,4]oxadiazol-5-yl)-phenol] | – | 5.6 | –
35 | Cc1cccnc1-c1n[nH]c(-c2cc(C(C)(C)C)ccc2O)n1 [Compound 441, 4-tert-Butyl-2-[5-(3-methyl-pyridin-2-yl)-2H-[1,2,4]triazol-3-yl]-phenol] | – | – | > 10
36 | COc1ccc(OCc2ccccc2)c(-c2ccnn2-c2ncccc2C(F)(F)F)c1 [Compound 81, 2-[5-(2-Benzyloxy-5-methoxy-phenyl)-pyrazol-1-yl]-3-trifluoromethyl-pyridine] | – | 6.2 | –
37 | FC(F)(F)c1ccc(-c2n[nH]c(-c3cccc4ccccc34)n2)nc1 [Compound 506, 2-(5-Naphthalen-1-yl-1H-[1,2,4]triazol-3-yl)-5-trifluoromethyl-pyridine] | > 19 | – | –
38 | Oc1ccc(F)cc1-c1nc(-c2ccc(C(F)(F)F)cn2)no1 [Compound 219, 4-Fluoro-2-[3-(5-trifluoromethyl-pyridin-2-yl)-[1,2,4]oxadiazol-5-yl]-phenol] | – | > 32 | > 32
39 | Cc1cccc(-c2n[nH]c(-c3ccc(OCc4ccccc4)cc3O)n2)n1 [Compound 397, 5-Benzyloxy-2-(5-(6-methyl-pyridin-2-yl)-2H-[1,2,4]triazol-3-yl)-phenol] | – | – | > 19
40 | Oc1ccccc1-c1nc(-c2ncccn2)n[nH]1 [Compound 569, 2-(5-pyrimidin-2-yl-2H-[1,2,4]triazol-3-yl)-phenol] | > 32 | – | –
41 | CN(C)c1ccc(-c2nc(-c3ncccc3-c3ccccc3)no2)c(O)c1 [Compound 231, 5-Dimethylamino-2-[3-(3-phenyl-pyridin-2-yl)-[1,2,4]oxadiazol-5-yl]-phenol] | – | 2.4 | 2.4
42 | Oc1c(Br)cc(Br)cc1-c1nc(-c2cnccn2)n[nH]1 [Compound 590, 2,4-Dibromo-6-(5-pyrazin-2-yl-2H-[1,2,4]triazol-3-yl)-phenol] | 14 | – | –
43 | FC(F)(F)c1ccncc1-c1n[nH]c(-c2cccc(Br)c2)n1 [Compound 474, 3-[5-(3-Bromo-phenyl)-1H-[1,2,4]triazol-3-yl]-4-trifluoromethyl-pyridine] | > 32 | – | –
44 | Cc1cccnc1-c1nc(-c2c(O)ccc3ccccc23)n(C)n1 [Compound 617, 1-[2-methyl-5-(3-methyl-pyridin-2-yl)-2H-[1,2,4]triazol-3-yl]-naphthalen-2-ol] | > 19 | – | –
45 | CC(C)c1ccc(-c2nc(-c3ncccc3C(F)(F)F)n[nH]2)cc1 [Compound 548, 2-[5-(4-Isopropyl-phenyl)-1H-[1,2,4]triazol-3-yl]-3-trifluoromethyl-pyridine] | > 19 | – | –
46 | c1ccc(-c2ncn(-c3ccccn3)n2)nc1 [Compound 639] | > 32 | – | –
47 | Cn1nc(-c2ccccn2)nc1-c1cc(Cl)cc(Br)c1O [Compound 627, 6-Bromo-4-Chloro-2-(2-methyl-5-pyridin-2-yl-2H-[1,2,4]triazol-3-yl)-phenol] | 2.5 | – | –
